Experimental data from patent publication US11691972B2, “Compounds for targeted degradation of BRD9” (C4 Therapeutics, Inc., priority 2020, dated 2023).
Where two headings read alike, the source gives them in different places.

Tests used:
[1] = test system: BAF wildtype synovial sarcoma cells (SW982); assay: Confluence (growth) over time in SW982 cells; assay type: cell-based, human; details: various concentrations, FIG. 17
BRD9 [2] = target: T1, BRD9 (Homo sapiens, UniProt Q9H8M2); assay: Western blot of endogenous BRD9 degradation in A204, HS-SY-II, SW982 and Yamato SS cells; assay type: cell-based; parameters: endogenous in cells; host or cells: Yamato-SS (human synovial sarcoma); details: SW982, Yamato SS cells, 6 hours, FIG. 15
T1 sequence (Q9H8M2 1-597): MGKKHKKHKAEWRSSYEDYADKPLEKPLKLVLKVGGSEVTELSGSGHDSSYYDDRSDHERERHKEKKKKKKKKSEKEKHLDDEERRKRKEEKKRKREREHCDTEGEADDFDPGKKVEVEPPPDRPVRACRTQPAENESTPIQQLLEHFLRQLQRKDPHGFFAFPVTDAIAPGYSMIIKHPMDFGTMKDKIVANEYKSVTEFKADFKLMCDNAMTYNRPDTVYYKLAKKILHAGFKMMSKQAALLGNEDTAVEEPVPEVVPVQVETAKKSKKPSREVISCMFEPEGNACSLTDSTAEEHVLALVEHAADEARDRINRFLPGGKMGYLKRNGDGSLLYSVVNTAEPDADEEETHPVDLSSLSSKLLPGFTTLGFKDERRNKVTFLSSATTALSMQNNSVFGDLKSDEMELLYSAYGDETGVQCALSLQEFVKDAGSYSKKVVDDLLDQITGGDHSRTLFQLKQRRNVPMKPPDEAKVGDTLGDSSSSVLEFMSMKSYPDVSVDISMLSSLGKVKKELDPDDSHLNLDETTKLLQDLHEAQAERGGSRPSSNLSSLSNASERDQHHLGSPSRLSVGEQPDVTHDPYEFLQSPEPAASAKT
Experimental: The top left represents the malignant human rhabdoid tumor (A204), top right represents the human synovial sarcoma (HS-SY-II), the bottom left represents human soft tissue sarcoma (SW982, BAF wildtype) and the bottom right represents synovial sarcoma (Yamato SS), all via western blot.
Cells were plated at 500,000 cells/well in a 6-well plate and allowed to adhere for 16 hours. Each cell line was treated with Compound 176 serially diluted in DMSO for 6 hours. Cell pellets were collected, lysed with RIPA lysis buffer in the presence of protease inhibitors, and run on a 4-12% acrylamide gel for 45 minutes at 150V. Proteins were transferred to a nitrocellulose membrane and incubated with antibodies against BRD9 (1:1000; Cell Signaling Technology, #71232) or Vinculin (1:10,000; EMD, 05-386) overnight with agitation at 4° C. Blots were thrice washed with tris-buffered saline+0.05% tween-20 and incubated with host-directed fluorescently-conjugated antibodies for 1 hour at room temperature. Blots were thrice washed and imaged on a LiCor Odyssey CLx.

[3] = test system: Synovial Sarcoma PDX model (SA13412); assay: Tumor volume in the Synovial Sarcoma PDX model (SA13412); assay type: in vivo; details: various concentrations, FIG. 23
[4] = Body weight change in synovial sarcoma PDX model (SA13412); assay type: in vivo, mice; details: 50 mg/kg once a day, 25 mg/kg twice a day, 16.6 mg/kg three times a day, FIG. 24
Source text: The x axis is treatment measured in days and the y axis is body weight change measured in percentage. Less than 15% loss of body weight was observed on average.

BRD9 [5] = target: T1, BRD9; assay: Western blot, in-vivo BRD9 degradation in ASKA-SS tumors; parameters: inoculated subcutaneously into BALB/c nude mice at the right flank for tumor development; from tissue; host or cells: Yamato-SS xenograft tumours in BALB/c nude mice; species or system BALB/c nude mice; details: single dose 10 or 75 mg/kg PO, FIG. 13
Experimental: ASKA-SS cells were maintained in vitro until exponential growth phase and inoculated subcutaneously into BALB/c nude mice at the right flank for tumor development. Mice were treated with single dose of Compound 172 at 10 or 75 mg/kg PO. Tumor were collected at indicated time points and snap frozen until lysis. Tumors were ground and lysed in RIPA Buffer containing 2× protease/phosphatase inhibitor using a freeze grinder at 50 Hz for 5 minutes. Protein concentrations were determined by Pierce™ BCA Protein Assay Kit. Samples were diluted to appropriate concentrations and run in a western blot.

CYP 2C9 = CYP 2C9 (Homo sapiens, UniProt P11712); assay: CYP inhibition 2C9; assay type: in vitro ADME
CYP 2C9, sequence (P11712 whole entry): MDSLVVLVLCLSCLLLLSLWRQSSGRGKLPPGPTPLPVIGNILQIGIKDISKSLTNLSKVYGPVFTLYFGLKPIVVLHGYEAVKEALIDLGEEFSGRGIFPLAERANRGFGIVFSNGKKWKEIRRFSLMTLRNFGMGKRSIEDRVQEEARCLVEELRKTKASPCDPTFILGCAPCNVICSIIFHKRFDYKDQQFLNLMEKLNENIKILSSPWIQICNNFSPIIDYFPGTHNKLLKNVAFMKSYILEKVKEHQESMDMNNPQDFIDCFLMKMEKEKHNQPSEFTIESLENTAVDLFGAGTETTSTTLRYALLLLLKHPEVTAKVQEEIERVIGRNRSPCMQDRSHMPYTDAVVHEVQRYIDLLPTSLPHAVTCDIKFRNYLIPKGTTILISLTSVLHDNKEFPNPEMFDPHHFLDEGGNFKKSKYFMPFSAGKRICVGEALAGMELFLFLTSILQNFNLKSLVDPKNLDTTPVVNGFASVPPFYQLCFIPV

GSPT1 = GSPT1 (Homo sapiens, UniProt P15170); assay: GSPT1 degradation; assay type: cell-based; details: one value given for IKZF1/SALL4/GSPT1
GSPT1, sequence (P15170 whole entry, species assumed): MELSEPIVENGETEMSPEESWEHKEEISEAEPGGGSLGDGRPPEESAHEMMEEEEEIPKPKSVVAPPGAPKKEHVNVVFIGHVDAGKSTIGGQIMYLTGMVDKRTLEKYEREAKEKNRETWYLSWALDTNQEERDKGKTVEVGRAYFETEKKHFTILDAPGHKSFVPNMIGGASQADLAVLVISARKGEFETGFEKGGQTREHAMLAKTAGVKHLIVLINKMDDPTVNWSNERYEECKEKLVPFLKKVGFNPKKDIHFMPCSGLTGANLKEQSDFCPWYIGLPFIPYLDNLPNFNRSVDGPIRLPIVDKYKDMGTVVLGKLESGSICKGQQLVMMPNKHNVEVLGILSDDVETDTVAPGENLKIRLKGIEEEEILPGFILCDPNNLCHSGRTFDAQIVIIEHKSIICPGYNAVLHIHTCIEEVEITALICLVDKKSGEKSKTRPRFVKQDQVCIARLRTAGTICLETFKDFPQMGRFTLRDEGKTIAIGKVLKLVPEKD

SALL4 = SALL4 (Homo sapiens, UniProt Q9UJQ4); assay: SALL4 degradation; assay type: cell-based; details: one value given for IKZF1/SALL4/GSPT1
SALL4, sequence (Q9UJQ4 whole entry, species assumed): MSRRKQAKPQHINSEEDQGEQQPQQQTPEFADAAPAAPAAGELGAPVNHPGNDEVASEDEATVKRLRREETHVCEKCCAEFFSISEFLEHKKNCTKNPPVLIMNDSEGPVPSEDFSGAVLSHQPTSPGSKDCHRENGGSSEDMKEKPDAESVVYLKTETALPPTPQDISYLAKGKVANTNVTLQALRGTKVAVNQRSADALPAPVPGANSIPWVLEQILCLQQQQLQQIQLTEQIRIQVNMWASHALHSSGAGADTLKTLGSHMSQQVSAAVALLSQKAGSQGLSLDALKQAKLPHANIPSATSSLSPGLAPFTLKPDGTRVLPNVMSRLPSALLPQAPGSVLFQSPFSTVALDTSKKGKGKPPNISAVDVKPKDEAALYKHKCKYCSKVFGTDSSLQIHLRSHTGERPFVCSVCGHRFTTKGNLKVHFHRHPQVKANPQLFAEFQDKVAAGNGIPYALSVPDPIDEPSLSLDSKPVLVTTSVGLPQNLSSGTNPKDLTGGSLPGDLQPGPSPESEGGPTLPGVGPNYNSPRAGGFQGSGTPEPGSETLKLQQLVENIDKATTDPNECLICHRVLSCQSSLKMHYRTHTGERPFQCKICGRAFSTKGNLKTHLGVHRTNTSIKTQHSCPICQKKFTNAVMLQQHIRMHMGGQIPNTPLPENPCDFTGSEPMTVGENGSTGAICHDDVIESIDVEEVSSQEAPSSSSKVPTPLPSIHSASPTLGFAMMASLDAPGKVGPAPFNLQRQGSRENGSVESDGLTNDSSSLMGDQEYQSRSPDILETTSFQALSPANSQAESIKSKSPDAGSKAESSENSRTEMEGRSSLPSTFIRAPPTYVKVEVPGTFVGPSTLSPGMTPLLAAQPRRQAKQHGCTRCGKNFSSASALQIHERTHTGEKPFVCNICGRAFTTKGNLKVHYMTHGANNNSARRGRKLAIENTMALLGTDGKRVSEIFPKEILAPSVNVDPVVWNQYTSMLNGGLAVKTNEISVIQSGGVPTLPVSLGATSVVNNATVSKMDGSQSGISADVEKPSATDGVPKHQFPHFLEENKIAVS

IV PK, dog = assay type: in vivo
BRD9 [6] = target: T1, BRD9; assay: Western blot of BRD9, BRD4 and BRD7 in Yamato-SS cells; assay type: cell-based; parameters: endogenous in cells; host or cells: Yamato-SS (human synovial sarcoma); details: FIG. 3
Experimental: After treatment cells were collected, lysed in RIPA buffer supplemented with 2× proteasome/protease inhibitor, and protein concentrations were determined by Pierce™ BCA Protein Assay Kit. Samples were diluted to appropriate concentrations and run in a western blot.

BRD9 [7] = target: BRD9 (Mus musculus, UniProt Q3UQU0); assay: BRD9 degradation in mouse cells (24 h); assay type: cell-based
BRD9 (Mus musculus, UniProt Q3UQU0), sequence (Q3UQU0 whole entry): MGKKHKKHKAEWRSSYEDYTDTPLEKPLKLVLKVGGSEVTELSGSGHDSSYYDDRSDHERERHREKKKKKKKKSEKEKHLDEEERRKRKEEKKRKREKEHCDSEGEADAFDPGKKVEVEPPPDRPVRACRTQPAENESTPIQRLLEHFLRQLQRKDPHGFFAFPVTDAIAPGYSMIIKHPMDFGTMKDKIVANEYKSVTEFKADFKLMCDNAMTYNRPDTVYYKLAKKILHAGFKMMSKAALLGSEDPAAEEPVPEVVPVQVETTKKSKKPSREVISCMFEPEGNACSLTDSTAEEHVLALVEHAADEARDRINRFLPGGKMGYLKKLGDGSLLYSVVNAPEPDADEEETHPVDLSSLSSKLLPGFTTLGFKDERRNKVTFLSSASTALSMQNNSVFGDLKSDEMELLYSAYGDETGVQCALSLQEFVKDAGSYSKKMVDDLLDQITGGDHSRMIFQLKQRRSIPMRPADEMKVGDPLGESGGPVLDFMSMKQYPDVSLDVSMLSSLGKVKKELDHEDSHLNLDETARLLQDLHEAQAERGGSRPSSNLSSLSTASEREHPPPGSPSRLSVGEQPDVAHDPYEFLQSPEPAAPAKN

Caco-2 permeability = assay type: in vitro ADME; details: human
BRD9 [8] = target: T1, BRD9; assay: In-vivo BRD9 degradation in the Yamato-SS xenograft model; details: various concentrations and times, FIG. 12
CYP 3A4 = CYP 3A4 (Homo sapiens, UniProt P08684); assay: CYP inhibition 3A4; assay type: in vitro ADME
CYP 3A4, sequence (P08684 whole entry): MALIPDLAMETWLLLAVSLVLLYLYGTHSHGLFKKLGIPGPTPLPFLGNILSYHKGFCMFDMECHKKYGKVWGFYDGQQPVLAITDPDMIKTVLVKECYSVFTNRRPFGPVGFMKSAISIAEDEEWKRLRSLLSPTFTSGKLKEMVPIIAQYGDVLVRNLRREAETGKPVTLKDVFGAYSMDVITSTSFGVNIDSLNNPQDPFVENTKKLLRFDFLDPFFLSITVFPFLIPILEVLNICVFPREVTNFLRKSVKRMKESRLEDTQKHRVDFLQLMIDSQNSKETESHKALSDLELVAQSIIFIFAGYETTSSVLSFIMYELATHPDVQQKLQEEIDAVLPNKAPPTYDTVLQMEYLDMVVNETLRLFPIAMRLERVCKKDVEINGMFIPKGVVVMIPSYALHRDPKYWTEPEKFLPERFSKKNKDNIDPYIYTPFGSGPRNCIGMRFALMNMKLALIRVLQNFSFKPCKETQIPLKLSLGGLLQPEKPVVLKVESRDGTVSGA

CYP 2C19 = CYP 2C19 (Homo sapiens, UniProt P33261); assay: CYP TDI (time-dependent inhibition); assay type: in vitro ADME
CYP 2C19, sequence (P33261 whole entry): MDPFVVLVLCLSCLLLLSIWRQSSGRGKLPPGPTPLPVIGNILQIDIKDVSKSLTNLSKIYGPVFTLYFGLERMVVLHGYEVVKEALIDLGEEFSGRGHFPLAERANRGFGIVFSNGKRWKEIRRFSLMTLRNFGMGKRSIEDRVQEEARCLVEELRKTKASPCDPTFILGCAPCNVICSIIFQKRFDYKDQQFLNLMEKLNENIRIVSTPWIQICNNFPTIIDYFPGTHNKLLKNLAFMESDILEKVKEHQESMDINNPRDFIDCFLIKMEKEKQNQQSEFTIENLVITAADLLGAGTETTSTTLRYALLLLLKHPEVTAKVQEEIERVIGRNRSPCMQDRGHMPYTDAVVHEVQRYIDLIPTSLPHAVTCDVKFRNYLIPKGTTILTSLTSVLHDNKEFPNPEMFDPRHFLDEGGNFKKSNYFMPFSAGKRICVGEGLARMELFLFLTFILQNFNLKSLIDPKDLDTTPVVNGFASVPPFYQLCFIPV

CYP 2E1 = CYP 2E1 (Homo sapiens, UniProt P05181); assay: CYP inhibition 2E1; assay type: in vitro ADME
CYP 2E1, sequence (P05181 whole entry): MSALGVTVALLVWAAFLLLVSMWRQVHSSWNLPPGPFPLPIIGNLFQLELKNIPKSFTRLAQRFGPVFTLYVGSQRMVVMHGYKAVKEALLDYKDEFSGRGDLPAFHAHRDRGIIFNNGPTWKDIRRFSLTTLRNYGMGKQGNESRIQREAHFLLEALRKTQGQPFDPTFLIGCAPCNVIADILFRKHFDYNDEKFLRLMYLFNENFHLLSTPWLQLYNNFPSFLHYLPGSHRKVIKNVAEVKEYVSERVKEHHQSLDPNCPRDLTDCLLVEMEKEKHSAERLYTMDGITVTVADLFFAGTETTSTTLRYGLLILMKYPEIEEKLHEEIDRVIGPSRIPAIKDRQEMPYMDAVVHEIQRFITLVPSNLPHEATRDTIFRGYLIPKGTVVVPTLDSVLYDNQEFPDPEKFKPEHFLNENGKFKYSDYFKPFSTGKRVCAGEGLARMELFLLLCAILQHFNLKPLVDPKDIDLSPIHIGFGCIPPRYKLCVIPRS

CYP 2D6 = CYP 2D6 (Homo sapiens, UniProt P10635); assay: CYP inhibition 2D6; assay type: in vitro ADME
CYP 2D6, sequence (P10635 whole entry): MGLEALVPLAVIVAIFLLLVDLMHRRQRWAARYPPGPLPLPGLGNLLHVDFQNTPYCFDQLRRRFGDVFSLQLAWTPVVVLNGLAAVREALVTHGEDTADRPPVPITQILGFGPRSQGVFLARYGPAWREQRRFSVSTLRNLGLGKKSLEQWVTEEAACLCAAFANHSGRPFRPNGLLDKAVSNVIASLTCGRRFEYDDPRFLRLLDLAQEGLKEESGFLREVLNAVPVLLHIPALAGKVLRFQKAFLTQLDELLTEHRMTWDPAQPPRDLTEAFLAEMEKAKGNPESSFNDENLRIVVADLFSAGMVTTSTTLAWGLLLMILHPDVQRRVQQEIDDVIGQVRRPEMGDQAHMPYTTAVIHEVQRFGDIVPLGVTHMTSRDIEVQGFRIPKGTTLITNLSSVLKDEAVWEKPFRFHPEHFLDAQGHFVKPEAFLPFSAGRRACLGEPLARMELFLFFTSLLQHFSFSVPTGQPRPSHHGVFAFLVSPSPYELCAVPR

COc1cc(-c2cn(C)c(=O)c(C)c2C)cc(OC)c1CN1CCC(N2CCN(c3ccc(NC4CCC(=O)NC4=O)cc3F)CC2)C(F)(F)C1 (single isomer, unassigned) [Compound 176, 3-[4-[4-[1-[[2,6-dimethoxy-4-(1,4,5-trimethyl-6-oxo-3-pyridyl)phenyl]methyl]-3,3-difluoro-4-piperidyl]piperazin-1-yl]-3-fluoro-anilino]piperidine-2,6-dione]
confluence as a percentage of control over time [1]: lack of growth inhibition | degradation of alpha BRD9, western blot (BRD9 [2]): dose dependent degradation of alpha BRD9 | mean tumor volume+SEM [3]: efficacy | loss of body weight on average [4]: Less than 15%

COc1cc(-c2cn(C)c(=O)c(C)c2C)cc(OC)c1CN1CCC(N2CCN(c3ccc(NC4CCC(=O)NC4=O)cc3F)CC2)C(F)(F)C1 (stereo not shown) [Compound 172, 3-[4-[4-[1-[[2,6-dimethoxy-4-(1,4,5-trimethyl-6-oxo-3-pyridyl)phenyl]methyl]-3,3-difluoro-4-piperidyl]piperazin-1-yl]-3-fluoro-anilino]piperidine-2,6-dione]
in-vivo BRD9 degradation, western blot (BRD9 [5]): dose dependent in-vivo BRD9 degradation | IC50 (CYP 2C9): 30 µM | DC50 (GSPT1): > 9.99 µM | DC50 (SALL4): > 9.99 µM | IV PK AUC(0-last) (IV PK, dog; dose-normalised): 2343 (h*ng/mL)/(mg/kg) | IV PK Cmax (IV PK, dog; dose-normalised): 767 [ng/mL]/(mg/kg) | clearance (IV PK, dog; in vivo, read-out: IV PK CL): 6.2 mL/min/kg | Vd (IV PK, dog; in vivo, read-out: IV PK Vdss): 4.36 L/kg | half-life (IV PK, dog; in vivo, read-out: IV PK t1/2 (converted)): 8.8 h | degradation of BRD9 versus BRD4 and BRD7, western blot (BRD9 [6]): dose response degradation specific to BRD9, and not bromodomain containing proteins BRD4 and BRD7 | BRD9 degradation mouse cells (24 h), percent (BRD9 [7]): 36% | DC50 (BRD9 [7]; read-out: BRD9 degradation mouse cells (24 h), concentration): 0.099 µM | efflux ratio (Caco-2 permeability): 2.64 | Papp A→B (Caco-2 permeability; A-B): 7.1 ×10⁻⁶ cm/s | Papp B→A (Caco-2 permeability; B-A): 18.7 ×10⁻⁶ cm/s | in-vivo BRD9 degradation (normalized concentration) (BRD9 [8]): dose dependent in-vivo BRD9 degradation | IC50 (CYP 3A4): 18.2 µM | IC50 (CYP 2C19; 2C19, first of two values in brackets, read-out: CYP TDI 2C19, first value): > 50 µM | IC50 (CYP 2C19; 2C19, second of two values in brackets, read-out: CYP TDI 2C19, second value): 24 µM | IC50 (CYP 2E1): 30 µM | IC50 (CYP 2D6): 30 µM
